The source made the active and inactive calls. No cut-off for these calls is given here. Peptide text beside a SMILES is read from it.

Holding throughout (format): cell membranes
Common to all, as to details: Striatum

The species entered for assay [1] is Bos taurus. The assay is described as follows: Enhancement of [3H]NPA binding to dopamine receptor in bovine striatal membrane at 100 nM.
Assay [2] is filed under the species Bos taurus. Briefly: Enhancement of [3H]NPA binding to dopamine receptor in bovine striatal membrane at 1 uM.
The species named for assay [3] is Bos taurus. The assay is described as follows: Enhancement of [3H]NPA binding to dopamine receptor in bovine striatal membrane at 10 nM.

For the molecule `NC(=O)[C@H]1CS[C@@H]2CC[C@]3(CCCN3C(=O)[C@@H]3CCCN3)C(=O)N12`, in the assay filed under Bos taurus [1], the Activity is 38.2%.
Turning to `CC(C)C[C@@]1(NC(=O)[C@@H]2CCCN2)CC[C@@]2(C(N)=O)CCCN2C1=O`, the Activity in the assay listed under Bos taurus [1] amounted to 19.5%. Further, the result in the assay listed under Bos taurus [2] and in the assay filed under Bos taurus [3] was Active.
With `NC(=O)[C@@H]1CCCN1C(=O)[C@@H]1CCCN1C(=O)[C@@H]1CCCN1` (H-Pro-Pro-Pro-NH2), the Activity in the assay listed under Bos taurus [1] amounted to 34%.
For the molecule `NC(=O)[C@]12CCCN1C(=O)[C@@]1(CCCN1C(=O)[C@@H]1CCCN1)CC2`, the Activity in the assay listed under Bos taurus [3] came to 11.4%.

The values above are taken from ChEMBL document CHEMBL1138350, “Allosteric modulation of the dopamine receptor by conformationally constrained type VI beta-turn peptidomimetics of Pro-Leu-Gly-NH2” (J Med Chem, 2007).
